Reference: patent publication US20260308159A1, “BICYCLIC HETEROARYLAMIDES HAVING GPR68 MODULATING ACTIVITY” (RECURSION PHARMACEUTICALS, INC., priority 2023, published 2026)
Where two headings read alike, the source gives them in different places.

Target: T1, human GPR68 (Homo sapiens, UniProt Q15743)
T1 construct: encoding full-length human GPR68 (uniprot ID: Q15743); expressed in transfected cells; host or cells: HEK293T
Assay: GPR68 Biochemical Assay (Promega GloSensor cAMP assay, GPR68 antagonism)
Type: cell-based
Settings: 15 min
Description: GPR68 antagonism was determined using the Promega GloSensor™ CAMP assay (F. I. Wang et al., Methods 2021, S1046-2023 (21) 00249-8). HEK293T cells (obtained from ECACC, Cat 12022001, Lot no. 17E044) were cultured in T175 flasks (Greiner, Cat 660175) in DMEM (Gibco, Cat 11995-065) supplemented with 10% Fetal Bovine Serum (Gibco Cat 16000-044), and 100 u/mL Pen-Strep (Gibco, Cat 15140) at 37° C. and 5% CO2. GPR68 expression was achieved by transient transfection with a mammalian expression plasmid encoding full-length human GPR68 (uniprot ID: Q15743) under control of a CMV promoter. The day before transfection, cell media was aspirated and HEK293T cells were incubated with accutase (Sigma, Cat A6964) for 3-4 minutes 37° C. and 5% CO2 before being manually detached with excess DMEM and trituration. Cell density was determined by automated cell counting (Countess, Invitrogen) and adjusted to 6×10^6 cells/20 mL and transferred to 15 cm dishes (Thermo Fisher, Cat 130183) for overnight incubation at 37° C. and 5% CO2. The next day separate mammalian expression plasmids encoding hGPR68 (4 μg) and Promega GloSensor (8 μg) were diluted to 1 mL in Opti-MEM (Thermo Fisher Scientific, Cat 31985070) and incubated with 30 μL of lipofectamine 3000 (also diluted to 1 mL in Opti-MEM) for 15 minutes at room temperature and subsequently added dropwise to the plated cells. Post transfection cells were then incubated at 37° C. and 5% CO2 for at least 16 hours before transfer to assay plates the following day. Transfer was conducted by washing cells with PBS and incubating with accutase for 3-4 minutes 37° C. and 5% CO2 before being manually detached with excess DMEM and mild trituration. The suspension was then centrifuged at 192 RCF for 4 minutes in a 50 mL centrifuge tube (Greiner, Cat 227261).
Supernatant was removed by aspiration and the cell pellet was resuspended in DMEM+1% dialysed FBS (Gibco, Cat 26400-044) and 100 u/mL Pen-Strep to a cell density of 500 cells/μL. Cells were plated into poly-L-Lysine coated 384-well white assay plates (Corning, Cat 3570) at a final volume of 40 µL and a density of 20,000 cells/well before overnight incubation at 37° C. and 5% CO2. The following day media was manually ejected from the 384-well assay plate and replaced with 10 μL GloSensor substrate (Promega, Cat E1291) prepared in pH 8.0 assay buffer (1×HBSS, 10 mM HEPES, 10 mM MOPS). Cells were incubated with this solution for 60 minutes at room temperature in the dark. Test compounds or an equivalent volume of DMSO (vehicle) were added to compounds plates to create a 9-point, half-log concentration series for each compound with a maximum final assay concentration of 50 μM and a consistent final DMSO concentration of 0.5%. Assay buffer with 0.1% BSA and 0.01% ascorbic acid was prepared at three pHs: pH 8.0, pH 5.5 and pH 4.5. pH 8.0 and 4.5 were added to the compound plate as maximum and minimum effect controls whilst pH 5.5 was added to all compound wells to stimulate GPR68 to a level corresponding to […] of maximal stimulation after addition to the cells already in pH 8.0 (assay acceptance criteria range 70-90%). DMSO/Compound and buffer was added to the plated cells containing the GloSensor substrate and incubated for 15 minutes at room temperature before being read on a microplate reader (BMG PHERAstar, optic module LUM Plus with Gain 3600). Data was exported and analysed in excel and Graphpad prism (version 9). Assay QC acceptance criteria required the maximum and minimum controls to return a Z′≥0.5, the EC80 to be 80%±10% of expected and the reference ligand pIC50 to be within one-half-log unit of its historical IC50. Percent inhibition was calculated using the mean EC80 (pH 5.5) and mean minimum effect control (pH 8.0). Data were plotted as percentage inhibition, average±SEM. IC50, Emax, Emin, Actual max, actual min, R^2 and fit confidence were calculated using Graphpad Prism's sigmoidal dose-response function.

[1] = HEK293T cells transiently expressing hGPR68, antagonism of pH 5.5 stimulated cAMP, read-out: hGPR68 IC50

T1 sequence (Q15743 whole entry): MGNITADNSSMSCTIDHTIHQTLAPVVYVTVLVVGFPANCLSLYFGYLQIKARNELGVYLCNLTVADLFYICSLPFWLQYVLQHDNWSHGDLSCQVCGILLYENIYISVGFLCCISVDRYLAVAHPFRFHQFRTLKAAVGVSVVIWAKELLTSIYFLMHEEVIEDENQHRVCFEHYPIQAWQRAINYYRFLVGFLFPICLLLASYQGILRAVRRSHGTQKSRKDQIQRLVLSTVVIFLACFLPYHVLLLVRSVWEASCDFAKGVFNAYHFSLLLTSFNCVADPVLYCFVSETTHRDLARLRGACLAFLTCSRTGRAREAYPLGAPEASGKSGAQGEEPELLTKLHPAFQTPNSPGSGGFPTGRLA

Row | Compound | IC50 [1] [nM] | IC50 (hGPR68 IC50, HEK293T cells transiently expressing hGPR68, antagonism of pH 5.5 stimulated cAMP) [nM]
1 | Cc1nn2c(C(=O)N[C@H]3C[C@@H](OC(F)(F)F)C3)ccnc2c1C(N)=O [Compound 53, 2-methyl-N7-[cis-3-(trifluoromethoxy)cyclobutyl]pyrazolo[1,5-a]pyrimidine-3,7-dicarboxamide] | 50 to 500 | 
2 | COCc1nc2c(C(=O)NC3CC(F)(F)C3)ccnn2c1C(N)=O [Compound 54, N8-(3,3-difluorocyclobutyl)-2-(methoxymethyl)imidazo[1,2-b]pyridazine-3,8-dicarboxamide] | < 50 | 
3 | COCc1nc2c(C(=O)N[C@H]3C[C@@H](OC(F)(F)F)C3)ccnn2c1C(N)=O [Compound 55, 2-(methoxymethyl)-N8-[cis-3-(trifluoromethoxy)cyclobutyl]imidazo[1,2-b]pyridazine-3,8-dicarboxamide] | 50 to 500 | 
4 | COCc1nc2c(C(=O)NC3Cc4ccccc4C3)ccnn2c1C(N)=O [Compound 56, N8-indan-2-yl-2-(methoxymethyl)imidazo[1,2-b]pyridazine-3,8-dicarboxamide] | < 50 | 
5 | COCc1nn2c(C(=O)NC3Cc4ccccc4C3)ccnc2c1C(N)=O [Compound 57, N7-indan-2-yl-2-(methoxymethyl)pyrazolo[1,5-a]pyrimidine-3,7-dicarboxamide] | < 50 | 
6 | COCc1nn2c(C(=O)NC3CC(F)(F)C3)ccnc2c1C(N)=O [Compound 58, N7-(3,3-difluorocyclobutyl)-2-(methoxymethyl)pyrazolo[1,5-a]pyrimidine-3,7-dicarboxamide] | < 50 | 
7 | COCc1nn2c(C(=O)Nc3ccc(C(F)(F)F)cn3)ccnc2c1C(N)=O [Compound 59, 2-(methoxymethyl)-N7-[5-(trifluoromethyl)-2-pyridyl]pyrazolo[1,5-a]pyrimidine-3,7-dicarboxamide] |  | < 50
8 | COCc1nn2c(C(=O)NC3Cc4cccnc4C3)ccnc2c1C(N)=O (centres unmarked) [Compound 60, N7-(6,7-dihydro-5H-cyclopenta[b]pyridin-6-yl)-2-(methoxymethyl)pyrazolo[1,5-a]pyrimidine-3,7-dicarboxamide] | < 50 | 
9 | COCc1nn2c(C(=O)N[C@H]3C[C@@H](OC(F)(F)F)C3)ccnc2c1C(N)=O [Compound 61, 2-(methoxymethyl)-N7-[cis-3-(trifluoromethoxy)cyclobutyl]pyrazolo[1,5-a]pyrimidine-3,7-dicarboxamide] | < 50 | 
10 | COCc1nn2c(C(=O)Nc3ccc(CN(C)C)cc3)ccnc2c1C(N)=O [Compound 62, N7-[4-[(dimethylamino)methyl]phenyl]-2-(methoxymethyl)pyrazolo[1,5-a]pyrimidine-3,7-dicarboxamide] | 500 to 5000 | 
11 | COCc1nn2c(C(=O)NCc3cnn(C)c3)ccnc2c1C(N)=O [Compound 63, 2-(methoxymethyl)-N7-[(1-methylpyrazol-4-yl)methyl]pyrazolo[1,5-a]pyrimidine-3,7-dicarboxamide] | 500 to 5000 | 
12 | COCc1nn2c(C(=O)Nc3cc(C)cc(C)n3)ccnc2c1C(N)=O [Compound 64, N7-(4,6-dimethyl-2-pyridyl)-2-(methoxymethyl)pyrazolo[1,5-a]pyrimidine-3,7-dicarboxamide] | < 50 | 
13 | COCc1nn2c(C(=O)Nc3cc(C(F)(F)F)ccn3)ccnc2c1C(N)=O [Compound 65, 2-(Methoxymethyl)-N7-[4-(trifluoromethyl)-2-pyridyl]pyrazolo[1,5-a]pyrimidine-3,7-dicarboxamide] | 50 to 500 | 
14 | COCc1nn2c(C(=O)Nc3ccc(F)c(F)c3)ccnc2c1C(N)=O [Compound 66, N7-(3,4-difluorophenyl)-2-(methoxymethyl)pyrazolo[1,5-a]pyrimidine-3,7-dicarboxamide] | < 50 | 
15 | COCc1nn2c(C(=O)NCc3ccc4c(c3)CCO4)ccnc2c1C(N)=O [Compound 67, N7-(2,3-dihydrobenzofuran-5-ylmethyl)-2-(methoxymethyl)pyrazolo[1,5-a]pyrimidine-3,7-dicarboxamide] | 50 to 500 | 
16 | COCc1nn2c(C(=O)Nc3ccc(F)cc3F)ccnc2c1C(N)=O [Compound 68, N7-(2,4-difluorophenyl)-2-(methoxymethyl)pyrazolo[1,5-a]pyrimidine-3,7-dicarboxamide] | < 50 | 
17 | COCc1nn2c(C(=O)NCc3ccccc3)ccnc2c1C(N)=O [Compound 69, N7-benzyl-2-(methoxymethyl)pyrazolo[1,5-a]pyrimidine-3,7-dicarboxamide] | 50 to 500 | 
18 | COCc1nn2c(C(=O)NCc3ccc(F)cc3)ccnc2c1C(N)=O [Compound 70, N7-[(4-fluorophenyl)methyl]-2-(methoxymethyl)pyrazolo[1,5-a]pyrimidine-3,7-dicarboxamide] | < 50 | 
19 | COCc1nn2c(C(=O)NCc3cccc(F)c3)ccnc2c1C(N)=O [Compound 71, N7-[(3-fluorophenyl)methyl]-2-(methoxymethyl)pyrazolo[1,5-a]pyrimidine-3,7-dicarboxamide] | 50 to 500 | 
20 | COCc1nn2c(C(=O)NCc3ccc(C)cc3)ccnc2c1C(N)=O [Compound 72, 2-(methoxymethyl)-N7-(p-tolylmethyl)pyrazolo[1,5-a]pyrimidine-3,7-dicarboxamide] | < 50 | 
21 | COCc1nn2c(C(=O)NC3CCc4ccc(OC)cc4C3)ccnc2c1C(N)=O (centres unmarked) [Compound 73, 2-(methoxymethyl)-N7-(7-methoxytetralin-2-yl)pyrazolo[1,5-a]pyrimidine-3,7-dicarboxamide] | < 50 | 
22 | COCc1nn2c(C(=O)N[C@@H]3CCCc4ccccc43)ccnc2c1C(N)=O [Compound 74, 2-(methoxymethyl)-N7-[(1R)-tetralin-1-yl]pyrazolo[1,5-a]pyrimidine-3,7-dicarboxamide] | < 50 | 
23 | COCc1nn2c(C(=O)NC3COc4ccccc43)ccnc2c1C(N)=O (centres unmarked) [Compound 75, N7-(2,3-dihydrobenzofuran-3-yl)-2-(methoxymethyl)pyrazolo[1,5-a]pyrimidine-3,7-dicarboxamide] | < 50 | 
24 | COCc1nn2c(C(=O)NC3CCCCC3)ccnc2c1C(N)=O [Compound 76, N7-cyclohexyl-2-(methoxymethyl)pyrazolo[1,5-a]pyrimidine-3,7-dicarboxamide] | 50 to 500 | 
25 | COCc1nn2c(C(=O)NCC3CC3(C)C)ccnc2c1C(N)=O (centres unmarked) [Compound 77, N7-[(2,2-dimethylcyclopropyl)methyl]-2-(methoxymethyl)pyrazolo[1,5-a]pyrimidine-3,7-dicarboxamide] | 500 to 5000 | 
26 | COCc1nn2c(C(=O)NC3COc4ccccc4C3)ccnc2c1C(N)=O (centres unmarked) [Compound 78, N7-chroman-3-yl-2-(methoxymethyl)pyrazolo[1,5-a]pyrimidine-3,7-dicarboxamide] | 50 to 500 | 
27 | COCc1nn2c(C(=O)N[C@H]3CCc4ccccc4C3)ccnc2c1C(N)=O [Compound 79, 2-(methoxymethyl)-N7-[(2S)-tetralin-2-yl]pyrazolo[1,5-a]pyrimidine-3,7-dicarboxamide] | < 50 | 
28 | COCc1nn2c(C(=O)NC3CCC(F)(F)CC3)ccnc2c1C(N)=O [Compound 80, N7-(4,4-difluorocyclohexyl)-2-(methoxymethyl)pyrazolo[1,5-a]pyrimidine-3,7-dicarboxamide] | < 50 | 
29 | COCc1nn2c(C(=O)NCC3CC3)ccnc2c1C(N)=O [Compound 81, N7-(cyclopropylmethyl)-2-(methoxymethyl)pyrazolo[1,5-a]pyrimidine-3,7-dicarboxamide] | 50 to 500 | 
